According to patent US20220054438A1, “KCHIP2 MODULATOR COMPOUNDS AND THEIR USE FOR THE TREATMENT OF CARDIOVASCULAR DISEASES” (CONSEJO SUPERIOR DE INVESTIGACIONES CIENTÍFICAS (CSIC), priority 2018, published 2022):
Entries after “also recorded” stand apart in the source; their conditions may differ.

Legend:
[1] = target: T1, KV4.3+KChIP2+DPP6 channels (Homo sapiens, UniProt Q9NS61); assay: Whole-cell patch-clamp of KV4.3+KChIP2+DPP6 currents in transiently transfected CHO cells; assay type: cell-based
T1 construct: expressed in transfected cells; host or cells: CHO cells (transient transfection)
T1 sequence (P42658 whole entry partner, one chain of several): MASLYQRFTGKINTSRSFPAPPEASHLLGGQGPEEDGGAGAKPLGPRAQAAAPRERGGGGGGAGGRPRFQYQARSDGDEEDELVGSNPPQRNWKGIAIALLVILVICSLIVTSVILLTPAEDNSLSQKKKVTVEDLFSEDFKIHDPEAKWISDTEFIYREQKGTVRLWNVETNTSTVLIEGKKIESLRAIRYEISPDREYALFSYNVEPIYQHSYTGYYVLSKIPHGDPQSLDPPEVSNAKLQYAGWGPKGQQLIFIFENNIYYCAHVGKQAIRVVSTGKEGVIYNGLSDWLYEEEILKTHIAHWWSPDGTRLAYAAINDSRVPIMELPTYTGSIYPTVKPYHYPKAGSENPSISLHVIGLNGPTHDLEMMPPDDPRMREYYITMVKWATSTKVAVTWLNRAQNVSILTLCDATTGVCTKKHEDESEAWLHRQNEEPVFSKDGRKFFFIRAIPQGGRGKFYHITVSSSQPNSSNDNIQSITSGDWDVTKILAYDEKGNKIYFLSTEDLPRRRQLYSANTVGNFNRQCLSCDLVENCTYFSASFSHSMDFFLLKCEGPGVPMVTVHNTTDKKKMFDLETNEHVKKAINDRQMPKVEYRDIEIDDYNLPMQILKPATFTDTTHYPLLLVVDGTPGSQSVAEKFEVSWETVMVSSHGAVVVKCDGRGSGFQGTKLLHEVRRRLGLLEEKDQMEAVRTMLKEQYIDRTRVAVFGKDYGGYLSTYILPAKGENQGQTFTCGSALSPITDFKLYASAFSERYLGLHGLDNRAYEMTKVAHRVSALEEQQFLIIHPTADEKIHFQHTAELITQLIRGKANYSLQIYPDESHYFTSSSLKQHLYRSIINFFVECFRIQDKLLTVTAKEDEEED
Excerpt: (§1) Example 2. Tests of the effects of the compounds on the KV4.3/KChIP2 and KV4.3/KChIP2/DPP6 currents generated after the activation of KV4.3/KChIP2 and KV4.3/KChIP2/DPP6 channels expressed in CHO cells.
(§2) The compounds synthesized according to this invention have been evaluated in vitro in voltage clamp tests in CHO cells transiently transfected with cDNA encoding KV4.3 alone or KV4.3 in the presence of KChIP2 (KV4.3+KChIP2) and DPP6 (KV4.3+KChIP2+DPP6) using the whole-cell configuration of the patch-clamp technique. Some of the compounds activate the current generated by the activation of KV4.3+KChIP2 channels.

[2] = test system: K+ current in ventricular cardiomyocytes; assay: Perforated patch-clamp of K+ current in mouse ventricular cardiomyocytes; assay type: cell-based, C57BL/6J mice; conditions: 3 μM perfused for 3-4 minutes, +60 mV
Excerpt: Example 3. Effects of the Compounds on the K^+ Current Recorded in Mouse Ventricular Cardiomyocytes
The cardiomyocytes were obtained after enzyme dissociation with collagenase.

[3] = target: T2, KV4.3+KChIP2 channels (Homo sapiens, UniProt Q9NS61); assay: Whole-cell patch-clamp of KV4.3+KChIP2 currents in transiently transfected CHO cells; assay type: cell-based
T2 construct: expressed in transfected cells; host or cells: CHO cells (transient transfection)
T2 sequence (Q9NS61 1-270): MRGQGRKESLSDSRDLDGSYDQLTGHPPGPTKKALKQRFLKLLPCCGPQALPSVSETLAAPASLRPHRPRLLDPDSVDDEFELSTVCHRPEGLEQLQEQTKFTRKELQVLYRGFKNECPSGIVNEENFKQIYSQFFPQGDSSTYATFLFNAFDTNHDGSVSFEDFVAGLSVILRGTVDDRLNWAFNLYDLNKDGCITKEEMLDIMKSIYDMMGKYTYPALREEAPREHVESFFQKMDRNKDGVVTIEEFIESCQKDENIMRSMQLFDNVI
T2 sequence (Q9UK17 1-655 partner): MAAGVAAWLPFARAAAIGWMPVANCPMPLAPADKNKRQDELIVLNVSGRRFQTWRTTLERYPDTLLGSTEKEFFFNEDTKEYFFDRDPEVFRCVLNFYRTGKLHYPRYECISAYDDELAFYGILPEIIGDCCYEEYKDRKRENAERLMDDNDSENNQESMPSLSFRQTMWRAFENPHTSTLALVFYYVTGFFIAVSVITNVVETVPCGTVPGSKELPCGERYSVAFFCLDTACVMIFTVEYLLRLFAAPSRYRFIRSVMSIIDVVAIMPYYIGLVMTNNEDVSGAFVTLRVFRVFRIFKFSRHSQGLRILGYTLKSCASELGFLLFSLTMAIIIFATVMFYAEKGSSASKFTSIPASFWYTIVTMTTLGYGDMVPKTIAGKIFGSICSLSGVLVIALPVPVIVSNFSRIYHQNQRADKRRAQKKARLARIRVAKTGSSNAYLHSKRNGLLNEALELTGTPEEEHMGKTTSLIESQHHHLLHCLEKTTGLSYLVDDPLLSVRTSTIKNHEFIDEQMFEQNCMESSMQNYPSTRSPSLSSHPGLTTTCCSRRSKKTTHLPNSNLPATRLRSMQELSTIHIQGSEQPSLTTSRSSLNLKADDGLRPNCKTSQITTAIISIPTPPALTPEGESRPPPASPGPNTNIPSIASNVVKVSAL
Excerpt: as §1, §2

charge, concentration dependence ([1]; FIG. 2B, +60 mV, compared with KV4.3/KChIP2): increase in the charge more pronounced | maximum peak of the current ([3]; 3 μM, FIG. 1A, CHO cells): lowers the maximum peak
Structure (SMILES): O=C(Cc1cccc(Oc2ccccc2)c1)Nc1cc2ccccc2cc1C(=O)O [Compound 22bis, 3-[2-(3-phenoxyphenyl)acetylamino]-2-naphthoic acid]
current activating effect ([1]; 3 μM, FIG. 1B, compared with KV4.3+KChIP2): more pronounced in the presence of the DPP6 subunit | charge-voltage relationship (Q-V) ([1]; 3 μM, FIG. 3): increase in the charge of the KV4.3/KChIP2 and KV4.3/KChIP2/DPP6 current which turned out to be significant at potentials positive than 0 mV; also recorded: greater than in KV4.3/KChIP2 channels | decay (inactivation) time constant of the K+ current [2]: without modifying the decay time constant | maximum peak K+ current [2]: significant increase in the maximum peak current | charge measured as the area under the current record ([3]; 3 μM, CHO cells, depolarizing pulses at +60 mV): increases the charge; also recorded: produced an increase in the charge | charge-voltage relationship (Q-V) ([3]; 3 μM, FIG. 3): increase in the charge of the KV4.3/KChIP2 and KV4.3/KChIP2/DPP6 current which turned out to be significant at potentials positive than 0 mV | decrease in the peak versus decrease in the charge, concentration dependence ([3]; all concentrations tested except 0.01 μM, FIG. 2, +60 mV): decrease in the peak that was significantly greater than that of the charge
